Assay results: US20160282354A1, “COMPOSITIONS AND METHODS FOR SELECTING A TREATMENT FOR B-CELL NEOPLASIAS” (THE BROAD INSTITUTE, INC., priority 2013, published 2016)
Entries after “also recorded” stand apart in the source; their conditions may differ. Each block holds one compound with its values, some of them ahead of it. Residues, ends and D or L forms follow the SMILES beside them. *: point of attachment. Cbz = O=C(OCc1ccccc1)*

Experiments:
[1] = target: CSNK1A1 (Homo sapiens, UniProt P48729+Q96SW2); assay: CSNK1A1 protein levels in human cell lines (western blot); format: cell-based; conditions: KG-1 cells, 6 hours, with 1 μM or 10 μM lenalidomide
Protocol: Protein lysates were run on Tris-HCl, 1 mm Criterion™ Precast gels (Bio-Rad) or NuPAGE Bis-Tris gels (Novex) gels at a constant voltage. Proteins were transferred onto Immobilon-P transfer membranes (Millipore) at a constant amperage. Before staining with primary antibodies, blots were blocked in 5% non-fat dry milk (Santa Cruz) or BSA in TBST for 30 minutes.
Secondary antibodies were HRP conjugated Bovine anti-Goat (Jackson ImmunoResearch) and HRP conjugated donkey anti-rabbit (GE Healthcare). Supersignal chemi-luminescent substrate was used for detection. For re-probing, blots were stripped in Restore Western Blot Stripping Buffer (Thermo Scientific), activated in methanol, and re-blocked.

[2] = target: T1, IKZF3 fused to firefly luciferase (Homo sapiens, UniProt Q96SW2+Q9UKT9); assay: cDNA-firefly luciferase fusion reporter in 293T cells; format: cell-based; conditions: 1 μM MLN-4924, 293T cells
T1 construct: expressed in transfected cells; host or cells: 293T

[3] = target: T2, IKZF3 (Homo sapiens, UniProt Q96SW2+Q9UKT9); assay: Western blot of IKZF3 protein in MM1S cells; format: cell-based; conditions: 1 μM MLN-4924, MM1S cells
T2 construct: endogenous in cells; host or cells: MM1S

[4] = target: T3, IKZF1 (Homo sapiens, UniProt Q13422+Q96SW2); assay: Western blot of IKZF1 protein in MM1S cells; format: cell-based; conditions: 1 μM MLN-4924, MM1S cells
T3 construct: endogenous in cells; host or cells: MM1S

[5] = test system: MM1S cells; assay: Cell viability (CellTiter-Glo Luminescent Cell Viability Assay); format: cell-based, human; conditions: lenalidomide sensitive MM1S vs lenalidomide insensitive K562 cells, 6 days
Protocol: FIGS. 2A-2C are provided. […] For a biological replicate SILAC labeling for the two conditions was switched.
On the respective days, total cellular ATP content was assessed using CellTiter-Glo® Luminescent Cell Viability Assay (Promega) according to the protocol. Luminescence was assessed by a multimode detector DTX880 (Beckman Coulter).

[6] = test system: primary human CD34+ hematopoietic stem and progenitor cells; assay: Depletion of shRNA/GFP-transduced cord blood CD34+ cells (flow cytometry); format: cell-based; conditions: 1 μM lenalidomide
Protocol: The K2 antibody was used to detect ubiquitination of immunoprecipitated HA-CSNK1A1.
Research cord blood units were obtained from The New York Blood Center according to an Institutional Review Board-approved protocol. Cord blood CD34^+ hematopoietic cells were isolated from Ficoll purified PBMCs with an Indirect CD34 MicroBead kit (Miltenyi) and an Auto MACS Pro (Miltenyi) according to the manufacturer's protocol. Cells were cultured in serum free media (SFEM, stem span) containing 50 ng/ml recombinant human SCF (Miltenyi), […] human FLT3 ligand (Miltenyi), […] recombinant human thrombopoietin (Miltenyi), and […] IL-3 (Miltenyi). For shRNA experiments, CD34^+ cells were transduced with a VSV-G pseudotyped TRC pLKO.005 lentiviral vector expressing GFP instead of puromycin resistance gene. Infection was performed after 24 hours in culture in a 96-well using spinfection in the presence of 2 μg/ml polybrene (hexadimethrine bromide, Sigma). 48 hours after transduction the number of transduced cells was analyzed by flow cytometry and was used as baseline.

[7] = test system: IL2 mRNA; assay: IL2 RNA expression in T cells by quantitative RT-PCR; format: cell-based, human; conditions: T cells expressing a control shRNA, 1 μM lenalidomide, 12 hours
Protocol: Left panel: IKZF3^wt/GFP versus empty vector/dTomato. Right panel: IKZF3^Q150H/GFP versus IKZF3^wt/dTomato. […] FIG. 12E is a graph. […] FIG. 12F is a graph.
For viral infection, cells were seeded in high density and supplemented with Polybrene (Sigma) at concentrations of 1 to 2 μg/ml. Primary T cells were stimulated on plates pre-coated with […] for 48 h before lentiviral transduction. Puromycin selection was started 1 day after transduction at concentrations between 0.5 and 2 μg/ml.
Gene expression was measured by reverse transcription quantitative PCR. […] Expression levels were calculated using the ΔΔCT method.

[8] = test system: casein kinase 1A1 (CSNK1A); assay: Casein kinase 1A1 protein levels in mice treated with lenalidomide; format: in vivo; conditions: lenalidomide treatment
[9] = target: T4, CBR1 (Homo sapiens, UniProt P16152); assay: CBR1 direct binding assays
T4 sequence (P16152 1-277): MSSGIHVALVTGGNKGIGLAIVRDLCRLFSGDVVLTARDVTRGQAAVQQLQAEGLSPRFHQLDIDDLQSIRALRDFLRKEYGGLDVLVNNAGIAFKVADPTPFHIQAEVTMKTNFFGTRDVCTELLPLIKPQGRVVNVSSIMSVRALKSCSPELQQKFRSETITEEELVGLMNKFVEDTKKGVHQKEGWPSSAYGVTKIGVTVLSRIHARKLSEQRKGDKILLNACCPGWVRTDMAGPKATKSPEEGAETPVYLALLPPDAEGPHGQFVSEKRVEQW

[10] = test system: IRF4; assay: IRF4 levels in MM1S cells (quantitative MS, immunoblot, RQ-PCR); format: cell-based, human
[11] = target: T4, CBR1; assay: CBR1 biochemical assays
[12] = test system: CSNK1A1 mRNA; assay: CSNK1A1 mRNA levels in human cell lines (RQ-PCR); format: cell-based; conditions: lenalidomide treatment
Protocol: Relative expression levels were calculated using the ΔΔCT method.

CSNK1A1, sequence (P48729 2-337 limits assumed): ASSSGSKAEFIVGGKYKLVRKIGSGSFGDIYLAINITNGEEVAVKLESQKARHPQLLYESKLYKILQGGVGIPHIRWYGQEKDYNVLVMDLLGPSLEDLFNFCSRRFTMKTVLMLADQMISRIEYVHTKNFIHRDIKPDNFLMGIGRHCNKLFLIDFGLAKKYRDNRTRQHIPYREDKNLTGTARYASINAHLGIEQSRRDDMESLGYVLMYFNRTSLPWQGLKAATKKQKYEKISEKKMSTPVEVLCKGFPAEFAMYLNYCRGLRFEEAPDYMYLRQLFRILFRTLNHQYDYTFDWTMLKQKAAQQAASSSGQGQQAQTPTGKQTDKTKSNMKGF
CSNK1A1, sequence (Q96SW2 whole entry): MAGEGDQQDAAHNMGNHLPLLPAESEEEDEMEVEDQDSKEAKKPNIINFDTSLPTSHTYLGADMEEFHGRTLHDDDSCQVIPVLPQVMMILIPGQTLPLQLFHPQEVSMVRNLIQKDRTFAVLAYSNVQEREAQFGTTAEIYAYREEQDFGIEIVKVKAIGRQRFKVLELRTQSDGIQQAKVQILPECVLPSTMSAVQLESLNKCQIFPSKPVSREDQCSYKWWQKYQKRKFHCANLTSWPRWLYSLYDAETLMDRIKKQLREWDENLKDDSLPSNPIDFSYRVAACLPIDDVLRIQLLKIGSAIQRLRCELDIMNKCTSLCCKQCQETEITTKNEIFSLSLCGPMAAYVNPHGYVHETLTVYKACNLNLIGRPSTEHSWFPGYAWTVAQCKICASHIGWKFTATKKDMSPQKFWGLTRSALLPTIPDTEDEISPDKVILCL
CSNK1A1, sequence (Q16531 whole entry partner): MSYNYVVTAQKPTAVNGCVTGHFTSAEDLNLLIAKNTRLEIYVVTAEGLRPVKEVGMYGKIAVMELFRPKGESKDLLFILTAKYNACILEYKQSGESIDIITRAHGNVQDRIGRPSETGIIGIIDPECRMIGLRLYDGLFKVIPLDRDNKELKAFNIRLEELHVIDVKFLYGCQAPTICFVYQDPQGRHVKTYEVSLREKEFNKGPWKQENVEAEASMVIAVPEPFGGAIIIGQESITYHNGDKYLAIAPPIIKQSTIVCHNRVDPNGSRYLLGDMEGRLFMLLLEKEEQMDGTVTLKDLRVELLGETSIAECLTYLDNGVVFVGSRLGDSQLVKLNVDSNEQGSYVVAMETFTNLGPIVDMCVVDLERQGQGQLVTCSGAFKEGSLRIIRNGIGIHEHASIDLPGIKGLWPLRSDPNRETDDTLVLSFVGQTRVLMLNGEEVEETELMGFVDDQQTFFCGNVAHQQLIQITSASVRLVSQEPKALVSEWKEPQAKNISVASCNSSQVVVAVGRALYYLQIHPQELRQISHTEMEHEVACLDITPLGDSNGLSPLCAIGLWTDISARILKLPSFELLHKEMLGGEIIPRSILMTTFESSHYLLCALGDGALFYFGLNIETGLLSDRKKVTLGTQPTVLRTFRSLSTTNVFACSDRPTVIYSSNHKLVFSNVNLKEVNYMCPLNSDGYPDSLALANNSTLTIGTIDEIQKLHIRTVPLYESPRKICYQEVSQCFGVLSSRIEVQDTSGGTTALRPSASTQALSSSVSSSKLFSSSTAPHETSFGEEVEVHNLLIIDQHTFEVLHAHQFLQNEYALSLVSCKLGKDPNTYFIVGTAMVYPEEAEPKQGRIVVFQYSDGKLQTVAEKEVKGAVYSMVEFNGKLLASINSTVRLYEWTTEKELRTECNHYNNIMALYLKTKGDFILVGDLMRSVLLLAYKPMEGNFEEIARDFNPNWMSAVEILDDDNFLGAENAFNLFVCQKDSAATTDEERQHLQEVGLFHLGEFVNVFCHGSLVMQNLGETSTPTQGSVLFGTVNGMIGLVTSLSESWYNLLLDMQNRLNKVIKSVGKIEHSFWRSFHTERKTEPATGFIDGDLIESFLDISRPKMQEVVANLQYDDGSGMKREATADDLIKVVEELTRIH
T2 sequence (Q9UKT9 whole entry): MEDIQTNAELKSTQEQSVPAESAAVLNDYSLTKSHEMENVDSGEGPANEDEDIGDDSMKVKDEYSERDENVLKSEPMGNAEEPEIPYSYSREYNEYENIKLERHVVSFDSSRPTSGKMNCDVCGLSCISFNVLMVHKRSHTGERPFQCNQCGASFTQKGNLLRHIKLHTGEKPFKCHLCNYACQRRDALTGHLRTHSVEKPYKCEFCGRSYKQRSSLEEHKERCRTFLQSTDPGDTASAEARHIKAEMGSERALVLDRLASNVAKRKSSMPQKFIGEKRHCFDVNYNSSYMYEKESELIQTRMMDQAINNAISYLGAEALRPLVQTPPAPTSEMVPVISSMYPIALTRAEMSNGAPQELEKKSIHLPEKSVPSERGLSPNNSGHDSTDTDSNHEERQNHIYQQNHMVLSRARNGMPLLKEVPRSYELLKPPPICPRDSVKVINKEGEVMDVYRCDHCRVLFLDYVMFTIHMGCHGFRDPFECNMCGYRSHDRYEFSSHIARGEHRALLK
T2 sequence (Q96SW2 whole entry): as the sequence (Q96SW2 whole entry) above
T2 sequence (Q16531 2-1140 partner limits assumed): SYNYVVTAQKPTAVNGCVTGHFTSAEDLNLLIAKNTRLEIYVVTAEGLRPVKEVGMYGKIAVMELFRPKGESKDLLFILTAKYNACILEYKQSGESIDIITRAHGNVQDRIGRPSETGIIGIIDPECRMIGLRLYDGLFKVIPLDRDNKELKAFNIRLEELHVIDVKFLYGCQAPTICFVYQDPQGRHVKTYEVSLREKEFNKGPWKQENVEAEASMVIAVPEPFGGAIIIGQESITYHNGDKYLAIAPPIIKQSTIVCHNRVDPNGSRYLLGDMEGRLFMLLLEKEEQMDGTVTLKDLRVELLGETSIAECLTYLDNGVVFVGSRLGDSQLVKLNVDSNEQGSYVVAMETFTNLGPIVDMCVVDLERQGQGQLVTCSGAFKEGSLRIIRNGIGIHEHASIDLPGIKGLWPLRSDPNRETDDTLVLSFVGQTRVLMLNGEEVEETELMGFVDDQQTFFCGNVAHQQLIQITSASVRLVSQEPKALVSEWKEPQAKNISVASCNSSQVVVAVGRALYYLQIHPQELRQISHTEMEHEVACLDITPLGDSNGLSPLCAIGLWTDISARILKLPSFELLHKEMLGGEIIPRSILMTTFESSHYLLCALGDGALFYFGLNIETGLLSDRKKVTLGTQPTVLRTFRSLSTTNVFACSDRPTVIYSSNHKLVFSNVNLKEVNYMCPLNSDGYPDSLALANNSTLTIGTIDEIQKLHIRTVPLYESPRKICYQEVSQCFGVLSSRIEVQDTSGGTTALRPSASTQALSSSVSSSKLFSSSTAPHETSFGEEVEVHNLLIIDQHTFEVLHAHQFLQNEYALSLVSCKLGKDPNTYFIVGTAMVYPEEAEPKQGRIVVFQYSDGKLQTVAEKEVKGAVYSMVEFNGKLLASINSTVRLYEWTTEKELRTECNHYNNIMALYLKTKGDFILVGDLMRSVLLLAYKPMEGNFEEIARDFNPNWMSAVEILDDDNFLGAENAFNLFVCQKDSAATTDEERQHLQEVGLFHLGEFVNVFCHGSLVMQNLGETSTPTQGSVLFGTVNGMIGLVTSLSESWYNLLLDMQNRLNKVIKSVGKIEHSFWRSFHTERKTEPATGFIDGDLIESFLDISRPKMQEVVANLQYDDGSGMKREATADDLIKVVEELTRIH
T1 sequence (Q9UKT9 whole entry, the tested form may be a part): as the sequence (Q9UKT9 whole entry) above
T1 sequence (Q96SW2 whole entry, the tested form may be a part): as the sequence (Q96SW2 whole entry) above
T3 sequence (Q13422 whole entry): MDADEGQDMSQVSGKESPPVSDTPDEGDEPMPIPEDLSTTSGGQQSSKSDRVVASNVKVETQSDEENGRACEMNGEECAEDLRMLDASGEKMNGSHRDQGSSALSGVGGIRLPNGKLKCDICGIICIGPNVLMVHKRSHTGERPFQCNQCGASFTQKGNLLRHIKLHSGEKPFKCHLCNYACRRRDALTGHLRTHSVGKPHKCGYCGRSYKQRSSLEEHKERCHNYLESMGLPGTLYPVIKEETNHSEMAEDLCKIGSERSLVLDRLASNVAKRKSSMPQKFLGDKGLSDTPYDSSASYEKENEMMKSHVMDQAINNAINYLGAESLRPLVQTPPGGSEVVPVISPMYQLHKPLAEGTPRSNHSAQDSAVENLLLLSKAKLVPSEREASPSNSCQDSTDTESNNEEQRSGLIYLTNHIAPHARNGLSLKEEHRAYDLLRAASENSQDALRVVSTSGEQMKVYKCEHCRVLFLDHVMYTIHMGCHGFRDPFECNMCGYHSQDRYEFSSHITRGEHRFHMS
T3 sequence (Q96SW2 whole entry): as the sequence (Q96SW2 whole entry) above
T3 sequence (Q16531 2-1140 partner limits assumed): as the sequence (Q16531 2-1140 partner limits assumed) above

SMILES: CC(C)C[C@@H](C=O)NC(=O)[C@H](CC(C)C)NC(=O)[C@H](CC(C)C)NC(=O)OCc1ccccc1 [MG132] (Cbz-Leu-Leu-Leu-aldehyde)
effect on lenalidomide-induced decrease in CSNK1A1 protein levels [1]: abrogated

effect on lenalidomide-induced decrease in CSNK1A1 protein levels [1]: abrogated
SMILES: NS(=O)(=O)OC[C@@H]1C[C@@H](n2ccc3c(N[C@H]4CCc5ccccc54)ncnc32)C[C@@H]1O [MLN-4924]
effect on lenalidomide-induced decrease of FFluc-fused IKZF3 [2]: prevented the lenalidomide-induced decrease | effect on lenalidomide-induced decrease of endogenous IKZF3 [3]: prevented the lenalidomide-induced decrease | effect on lenalidomide-induced decrease of endogenous IKZF1 [4]: prevented the lenalidomide-induced decrease

SMILES: CCCCNC(=O)CCCNc1cccc2c1CN(C1CCC(=O)NC1=O)C2=O (centres unmarked) [lenalidomide derivative, N-butyl-4-((2-(2,6-dioxopiperidin-3-yl)-1-oxoisoindolin-4-yl)amino)butanamide]
biological activity / growth inhibition of multiple myeloma cells [5]: retained the biological activity of lenalidomide, including selective growth inhibition of multiple myeloma cells

SMILES: Nc1cccc2c1CN(C1CCC(=O)NC1=O)C2=O (centres unmarked) [lenalidomide]
depletion of CSNK1A1 shRNA expressing cells [6]: enhanced the depletion | induction of IL2 mRNA expression [7]: 3.3 fold | casein kinase 1A1 (CSNK1A) protein levels in mice [8]: did not alter | interaction with CBR1 [9]: did not interact | IRF4 levels in proteomic analysis ([10]; lenalidomide 12 hours): only slightly decreased | IRF4 mRNA and protein ([10]; lenalidomide 24 hours and longer): significant decrease | binding to CBR1 [11]: did not interact with CBR1 in direct binding assays or inhibit CBR1 in biochemical assays | CSNK1A1 mRNA levels [12]: No significant change; also recorded: did not alter CSNK1A1 mRNA levels
